Assay results published in patent US20090029958A1, “PHENETHANOLAMINE DERIVATIVES AS BETA2 ADRENORECEPTOR AGONISTS” (priority 2006, published 2009).
Structures can show the parent of a compound that is named as a salt.

Experiments:
[1] = target: T1, Adrenergic β2 (Homo sapiens, UniProt P07550); experiment: cAMP production in H292 cells, AlphaScreen cAMP detection (10 minutes incubation with test compound); assay type: cell-based; details: for Intrinsic Activity: fraction relative to the maximum activity determined for formoterol, 10 minutes incubation; for EC50: rolipram 300 μM, test compounds incubated 10 minutes at room temperature
T1 construct: endogenous in cells; host or cells: H292 cells
T1 sequence (P07550 whole entry): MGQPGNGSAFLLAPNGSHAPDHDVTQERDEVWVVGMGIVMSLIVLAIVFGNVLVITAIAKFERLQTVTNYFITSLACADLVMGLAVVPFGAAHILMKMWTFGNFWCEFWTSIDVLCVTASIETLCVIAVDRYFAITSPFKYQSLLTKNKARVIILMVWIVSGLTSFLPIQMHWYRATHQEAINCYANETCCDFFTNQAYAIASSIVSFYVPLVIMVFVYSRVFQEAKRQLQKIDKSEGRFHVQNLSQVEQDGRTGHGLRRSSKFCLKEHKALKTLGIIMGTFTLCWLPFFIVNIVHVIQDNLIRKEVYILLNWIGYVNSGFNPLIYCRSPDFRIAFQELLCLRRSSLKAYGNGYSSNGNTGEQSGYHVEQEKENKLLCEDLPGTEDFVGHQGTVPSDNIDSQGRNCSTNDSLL
Procedure: H292 cells were grown in RPMI (Roswell Park Memorial Institute) medium containing, 10% (v/v) FBS (foetal bovine serum) and 2 mM L-glutamine. Cells were grown in 225 cm2 flasks containing 25 mL media in a humidified incubator at 37° C., 5% CO2. Cells were harvested from the flask and passaged at a 1 in 10 dilution once per week.
The media from flasks containing H292 cells was removed, rinsed with 10 mL PBS (phosphate buffered saline) and replaced with 10 mL Accutase™ cell detachment solution. Flasks were incubated for 15 minutes in a humidified incubator at 37° C., 5% CO2. The cell suspension was counted and the cells re-suspended in RPMI media (containing 10% (v/v) FBS and 2 mM L-glutamine) at 0.05×10^6 cells per mL. 5000 cells in 100 μL were added to each well of a tissue-culture-treated 96-well plate and the cells incubated overnight in a humidified incubator at 37° C., 5% CO2. The culture media was removed, washed twice with 100 μL assay buffer and replaced with 50 μL assay buffer. Cells were rested at room temperature for 20 minutes after which time 25 μL of rolipram (1.2 mM made up in assay buffer containing 2.4% (v/v) dimethylsulphoxide) was added. Cells were incubated with rolipram for 10 minutes after which time test compounds (made up as ×4 concentrated stocks in assay buffer containing 4% (v/v) dimethylsulphoxide) were added and the cells were incubated for 10 minutes at room temperature. Final rolipram concentration in the assay was 300 μM and final vehicle concentration was 1.6% (v/v) dimethylsulphoxide. The reaction was stopped by removing supernatants, washing once with 100 μL assay buffer and replacing with 50 μL lysis buffer. The cell monolayer was frozen at −80° C. for 30 minutes (or overnight).
(§1) The concentration of cAMP (cyclic adenosine monophosphate) in the cell lysate was determined using the AlphaScreen™ methodology. The frozen cell plate was thawed for 20 minutes on a plate shaker then 10 μL of the cell lysate was transferred to a 96-well white plate. 40 μL of mixed AlphaScreen™ detection beads (containing equal volumes of donor beads (pre-incubated with biotinylated cAMP in the dark for 30 minutes) and acceptor beads), was added to each well and the plate incubated at room temperature for 10 hours in the dark. The AlphaScreen™ signal was measured using an EnVision spectrophotometer (Perkin-Elmer Inc.) with the recommended manufacturer's settings. cAMP concentrations were determined by reference to a calibration curve determined in the same experiment using standard cAMP concentrations (made up in lysis buffer in a 96-well tissue-culture-treated plate and frozen/thawed alongside the test samples) and detected using the same protocol. Concentration response curves for agonists were constructed to determine both the pEC50 and Intrinsic Activity. Intrinsic Activity was expressed as a fraction relative to the maximum activity determined for formoterol in each experiment.

[2] = target: T1, Adrenergic β2; experiment: Alternative Adrenergic β2 Mediated cAMP Production in H292 cells (60 minutes incubation with test compound); assay type: cell-based; details: for Intrinsic Activity: fraction relative to the maximum activity determined for formoterol, 60 minutes incubation; for EC50: rolipram 300 μM, test compounds incubated 60 minutes at room temperature
Procedure: H292 cells were grown in 225 cm2 flasks incubator at 37° C., 5% CO2 in RPMI medium containing, 10% (v/v) FBS (foetal bovine serum) and 2 mM L-glutamine.
Adherent H292 cells were removed from tissue culture flasks by treatment with Accutase™ cell detachment solution for 15 minutes. Flasks were incubated for 15 minutes in a humidified incubator at 37° C., 5% CO2. Detached cells were re-suspended in RPMI media (containing 10% (v/v) FBS and 2 mM L-glutamine) at 0.05×10^6 cells per mL. 5000 cells in 100 μL were added to each well of a tissue-culture-treated 96-well plate and the cells incubated overnight in a humidified incubator at 37° C., 5% CO2. The culture media was removed and cells were washed twice with 100 μL assay buffer and replaced with 50 μL assay buffer (HBSS solution containing 10 mM HEPES pH7.4 and 5 mM glucose). Cells were rested at room temperature for 20 minutes after which time 25 μL of rolipram (1.2 mM made up in assay buffer containing 2.4% (v/v) dimethylsulphoxide) was added. Cells were incubated with rolipram for 10 minutes after which time test compounds were added and the cells were incubated for 60 minutes at room temperature. The final rolipram concentration in the assay was 300 μM and final vehicle concentration was 1.6% (v/v) dimethylsulphoxide. The reaction was stopped by removing supernatants, washing once with 100 μL assay buffer and replacing with 50 μL lysis buffer. The cell monolayer was frozen at −80° C. for 30 minutes (or overnight).
as §1, with “using” for “using the”, “pre-incubated” for “(containing equal volumes of donor beads (pre-incubated”, “cAMP,” for “cAMP in the dark for 30 minutes) and acceptor beads),”, “concentrations.” for “concentrations (made up in lysis buffer in a 96-well tissue-culture-treated plate and frozen/thawed alongside the test samples) and detected using the same protocol.”, “constructed and data was fitted to a four parameter logistic equation” for “constructed”

SMILES | Intrinsic Activity [1] | EC50 [1] [nM] | Intrinsic Activity [2] | EC50 [2] [nM]
O=c1ccc2c([C@@H](O)CN[C@H]3CC[C@H](NCCOCCc4ccccc4)CC3)ccc(O)c2[nH]1 [Example 2, 8-Hydroxy-5-{(1R)-1-hydroxy-2-[(trans-4-{[2-(2-phenylethoxy)ethyl]amino}cyclohexyl)amino]ethyl}quinolin-2(1H)-one] | 0.9 | 20 |  | 
O=c1ccc2c([C@@H](O)CNC3CCN(CCCOCCc4ccccc4)CC3)ccc(O)c2[nH]1 [Example 3, 8-Hydroxy-5-[(1R)-1-hydroxy-2-({1-[3-(2-phenylethoxy)propyl]piperidin-4-yl}amino)ethyl]quinolin-2(1H)-one] | 0.8 | 31.6 |  | 
O=c1ccc2c([C@@H](O)CNCC3(O)CCN(CCOCCc4ccccc4)CC3)ccc(O)c2[nH]1 [Example 5, 8-Hydroxy-5-{(1R)-1-hydroxy-2-[({4-hydroxy-1-[2-(2-phenylethoxy)ethyl]piperidin-4-yl}methyl)amino]ethyl}quinolin-2(1H)-one] | 0.8 | 2.51 |  | 
O=C(CCN1CCC(NC[C@H](O)c2ccc(O)c3[nH]c(=O)ccc23)CC1)NCc1ccccc1 [Example 6, N-Benzyl-3-(4-{[(2R)-2-hydroxy-2-(8-hydroxy-2-oxo-1,2-dihydroquinolin-5-yl)ethyl]amino}piperidin-1-yl)propanamide] | 0.8 | 7.94 |  | 
O=c1ccc2c([C@@H](O)CNC[C@H]3CCCN(CCOCCc4ccccc4)C3)ccc(O)c2[nH]1 [Example 14, 8-Hydroxy-5-{(1R)-1-hydroxy-2-[({(3R)-1-[2-(2-phenylethoxy)ethyl]piperidin-3-yl}methyl)amino]ethyl}quinolin-2(1H)-one] | 1.0 | 5.01 |  | 
O=c1[nH]c2c(O)ccc([C@@H](O)CNCC3CN(CCCOCCc4ccccc4)C3)c2s1 [Example 20, 4-Hydroxy-7-{(1R)-1-hydroxy-2-[({1-[3-(2-phenylethoxy)propyl]azetidin-3-yl}methyl)amino]ethyl}-1,3-benzothiazol-2(3H)-one hydrochloride] |  |  | 1 | 0.316
Cc1cccc(Cl)c1CNC(=O)CCN1CCC(NC[C@H](O)c2ccc(O)c3[nH]c(=O)ccc23)CC1 [Example 31, N-(2-Chloro-6-methylbenzyl)-3-(4-{[(2R)-2-hydroxy-2-(8-hydroxy-2-oxo-1,2-dihydroquinolin-5-yl)ethyl]amino}piperidin-1-yl)propanamide] |  |  | 0.8 | 5.01
O=C(CCN1CCC(NC[C@H](O)c2ccc(O)c3[nH]c(=O)ccc23)CC1)NCc1cccc(Cl)c1Cl [Example 36, N-(2,3-Dichlorobenzyl)-3-(4-{[(2R)-2-hydroxy-2-(8-hydroxy-2-oxo-1,2-dihydroquinolin-5-yl)ethyl]amino}piperidin-1-yl)propanamide] |  |  |  | 3.16
O=C(CCN1CCC(NC[C@H](O)c2ccc(O)c3[nH]c(=O)ccc23)CC1)NC12CC3CC(CC(C3)C1)C2 [Example 41, N-1-Adamantyl-3-(4-{[(2R)-2-hydroxy-2-(8-hydroxy-2-oxo-1,2-dihydroquinolin-5-yl)ethyl]amino}piperidin-1-yl)propanamide] |  |  | 0.8 | 3.98
O=c1ccc2c([C@@H](O)CNCC3(O)CCN(CCOCCc4cccc5c4CCCC5)CC3)ccc(O)c2[nH]1 [Example 74, 8-Hydroxy-5-{(2R)-1-hydroxy-2-[(4-hydroxy-1-{2-[2-(5,6,7,8-tetrahydronaphthalen-1-yl)ethoxy]ethyl}piperidin-4-ylmethyl)amino]ethyl}-1H-quinolin-2-one] |  |  | 0.9 | 0.794
